How the values were obtained:
pERK in NCI-H358 cells = test: Cell-based pERK HTRF assay (pERK inhibition in H358 cells); details: 30 min incubation
Summary of the method: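 NCI-H358 cells were seeded at 4×10^4 cells/well in RPMI/10% FBS, then treated next day for 30 min at 0.25% DMSO (9-point, 3-fold series from 75 μM). Lysates were read by HTRF (d2/Eu cryptate antibody pair, 615 nm emission) after 4–24 h at room temperature to give pERK IC50.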

[1] = biological target: T1, GTP-loaded KRAS4b (amino acids 1-169) G12C/C118S protein (Homo sapiens, UniProt P01116, C118S/G12C); test: Covalent cysteine 12 modification by MALDI-TOF MS, GTP-loaded KRAS G12C; format: binding; details: 15 minutes reaction time point
T1 construct: KRAS4b (amino acids 1-169) G12C/C118S protein; made in house
Summary of the method: (§1)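 1 μM GppNHp-, GTP- or GDP-loaded KRAS4b (1-169) G12C/C118S in 20 mM HEPES, 150 mM NaCl, 1 mM MgCl2, pH 7.3, at 1:2.5 protein:compound, room temperature in the dark. Percent Cys12 modification from MALDI-TOF peak heights (adduct/total protein), reported at 15 min.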

[2] = biological target: T2, GppNHp-loaded KRAS4b (amino acids 1-169) G12C/C118S protein (Homo sapiens, UniProt P01116, C118S/G12C); test: Covalent cysteine 12 modification by MALDI-TOF MS, GppNHp-loaded KRAS G12C; format: binding; details: 15 minutes reaction time point
T2 construct: KRAS4b (amino acids 1-169) G12C/C118S protein; made in house
Summary of the method: as §1

IC50 (pERK in NCI-H358 cells; Homo sapiens, NCI-H358, 0.5 h)	GTP-KRAS G12C percent of modification [1]	GppNHp-KRAS G12C percent of modification [2]	IC50 (pERK in NCI-H358 cells)	Structure (SMILES)
< 100 nM	A (percent of modification ≥70%)	A (percent of modification ≥70%)		C=CC(=O)N1CC[C@@H](N(C)c2nc(OC[C@@]34CCCN3C[C@H](F)C4)nc3c(F)c(-c4ccc(F)c5sc(N)c(C#N)c45)c(Cl)cc23)[C@@H]1C (atropisomer, axis not shown) [Compound 68]
	D (percent of modification <10%)	D (percent of modification <10%)	100 to 1000 nM	C=CC(=O)N1CC[C@@H](N(C)c2nc(OC[C@@]34CCCN3C[C@H](F)C4)nc3c(F)c(-c4ccc(F)c5sc(N)c(C#N)c45)c(Cl)cc23)[C@@H]1C (atropisomer, axis not shown) [Compound 69]
100 to 1000 nM	C (10%≤percent of modification <50%)	C (10%≤percent of modification <50%)		C=CC(=O)N1CCC(N(C)c2nc(OC[C@@H]3CCCN3C3CC3)nc3c(F)c(-c4ccc(F)c5sc(N)c(C#N)c45)c(C(F)(F)F)cc23)[C@H]1C (some centres unmarked) [Compound 1]
< 100 nM	D (percent of modification <10%)	D (percent of modification <10%)		C=CC(=O)N1CCC(N(C)c2nc(OC[C@@]34CCCN3C[C@H](F)C4)nc3c(F)c(-c4ccc(F)c5sc(N)c(C#N)c45)c(Cl)cc23)[C@H]1CC (some centres unmarked) [Compound 2]
< 100 nM	B (50≤percent of modification <70%)	C (10%≤percent of modification <50%)		C=CC(=O)N1CCC(N(C)c2nc(OC[C@@]34CCCN3C[C@H](F)C4)nc3c(F)c(-c4ccc(F)c5sc(N)c(C#N)c45)c(C(F)(F)F)cc23)[C@H]1CC (some centres unmarked) [Compound 3]
100 to 1000 nM	D (percent of modification <10%)	D (percent of modification <10%)		C=CC(=O)N1C[C@H]2C[C@@H]1CN2c1nc(OC[C@@]23CCCN2C[C@H](F)C3)nc2c(F)c(-c3ccc(F)c4sc(N)c(C#N)c34)c(C(F)(F)F)cc12 [Compound 37]
< 100 nM	C (10%≤percent of modification <50%)	C (10%≤percent of modification <50%)		C=CC(=O)N1CC[C@@H](N(CC)c2nc(OC[C@@]34CCCN3C[C@H](F)C4)nc3c(F)c(-c4ccc(F)c5sc(N)c(C#N)c45)c(C(F)(F)F)cc23)[C@H]1CC [Compound 39]
100 to 1000 nM	D (percent of modification <10%)	D (percent of modification <10%)		C=CC(=O)N1CC[C@@H](N(CC)c2nc(OC[C@@]34CCCN3C[C@H](F)C4)nc3cc(-c4ccc(F)c5sc(N)c(C#N)c45)c(C#N)cc23)[C@@H]1CC [Compound 40]
100 to 1000 nM	D (percent of modification <10%)	D (percent of modification <10%)		C=CC(=O)N1CC[C@@H](N(CC)c2nc(OC[C@@]34CCCN3C[C@H](F)C4)nc3cc(-c4ccc(F)c5sc(N)c(C#N)c45)c(F)cc23)[C@@H]1CC [Compound 41]
< 100 nM	A (percent of modification ≥70%)	A (percent of modification ≥70%)		C=CC(=O)N1CC[C@@H](N(C)c2nc(OC[C@@]34CCCN3C[C@H](F)C4)nc3cc(-c4ccc(F)c5sc(N)c(C#N)c45)c(C#N)cc23)[C@H]1CC [Compound 42]
< 100 nM	B (50≤percent of modification <70%)	A (percent of modification ≥70%)		C=CC(=O)N1CC[C@@H](N(CC)c2nc(OC[C@@H]3C[C@@H](OC)CN3C)nc3c(F)c(-c4ccc(F)c5sc(N)c(C#N)c45)c(C(F)(F)F)cc23)[C@H]1C [Compound 45, 4-(4-(((2R,3R)-1-acryloyl-2-methylpyrrolidin-3-yl)(ethyl)amino)-8-fluoro-2-(((2S,4R)-4-methoxy-1-methylpyrrolidin-2-yl)methoxy)-6-(trifluoromethyl)quinazolin-7-yl)-2-amino-7-fluorobenzo[b]thiophene-3-carbonitrile]
100 to 1000 nM	D (percent of modification <10%)	D (percent of modification <10%)		C=CC(=O)N1CC[C@@H](N(CC)c2nc(OC[C@@]34CCCN3C[C@H](F)C4)nc3c(F)c(-c4ccc(F)c5sc(N)c(C#N)c45)ccc23)[C@@H]1CC [Compound 50]
	A (percent of modification ≥70%)	B (50≤percent of modification <70%)	< 100 nM	C=CC(=O)N1CC[C@@H](N(CC)c2nc(OC[C@@H]3C[C@@H](F)CN3C)nc3c(F)c(-c4ccc(F)c5sc(N)c(C#N)c45)c(C(F)(F)F)cc23)[C@H]1C [Compound 52]
< 100 nM	A (percent of modification ≥70%)	A (percent of modification ≥70%)		C=CC(=O)N1CC[C@@H](N(C)c2nc(OC[C@@H]3C[C@@H](F)CN3C)nc3c(F)c(-c4ccc(F)c5sc(N)c(C#N)c45)c(C(F)(F)F)cc23)[C@H]1C [Compound 55]
< 100 nM	C (10%≤percent of modification <50%)	B (50≤percent of modification <70%)		C=CC(=O)N1CC[C@@H](N(CC)c2nc(OC[C@@]34CCCN3C[C@H](F)C4)nc3cc(-c4ccc(F)c5sc(N)c(C#N)c45)c(C#N)cc23)[C@@H]1C [Compound 56]
< 100 nM	C (10%≤percent of modification <50%)	B (50≤percent of modification <70%)		C=CC(=O)N1CC[C@@H](N(CC)c2nc(OC[C@@]34CCCN3C[C@H](F)C4)nc3c(F)c(-c4ccc(F)c5sc(N)c(C#N)c45)ccc23)[C@@H]1C [Compound 57]
< 100 nM	A (percent of modification ≥70%)	A (percent of modification ≥70%)		C=CC(=O)N1CC[C@@H](N(CC)c2nc(OC[C@@H]3CCCN3C)nc3c(F)c(-c4ccc(F)c5sc(N)c(C#N)c45)c(Cl)cc23)[C@H]1C [Compound 58]
	A (percent of modification ≥70%)	A (percent of modification ≥70%)	< 100 nM	C=CC(=O)N1CC[C@@H](N(C)c2nc(OC[C@@H]3CCCN3C)nc3c(F)c(-c4ccc(F)c5sc(N)c(C#N)c45)c(Cl)cc23)[C@H]1C [Compound 59]
< 100 nM	B (50≤percent of modification <70%)			C=CC(=O)N1CC[C@@H](N(C)c2nc(OC[C@@H]3CCCN3CC)nc3c(F)c(-c4ccc(F)c5sc(N)c(C#N)c45)c(C(F)(F)F)cc23)[C@H]1C [Compound 88]

Structure (SMILES)	IC50 (pERK in NCI-H358 cells; Homo sapiens, NCI-H358, 0.5 h)	GTP-KRAS G12C percent of modification [1]	GppNHp-KRAS G12C percent of modification [2]	IC50 (pERK in NCI-H358 cells)
C=CC(=O)N1CC2CC(C1)N2c1nc(OC[C@@]23CCCN2C[C@H](F)C3)nc2c(F)c(-c3ccc(F)c4sc(N)c(C#N)c34)c(C(F)(F)F)cc12 [Compound 46]	100 to 1000 nM	D (percent of modification <10%)	D (percent of modification <10%)	
C=CC(=O)N1CC2CCC(C1)N2c1nc(OC[C@@]23CCCN2C[C@H](F)C3)nc2c(F)c(-c3ccc(F)c4sc(N)c(C#N)c34)c(C(F)(F)F)cc12 [Compound 49]	< 100 nM	D (percent of modification <10%)	C (10%≤percent of modification <50%)	
